From ChEMBL document CHEMBL4725361, “MicroRNA-Based Multitarget Approach for Alzheimer's Disease: Discovery of the First-In-Class Dual Inhibitor of Acetylcholinesterase and MicroRNA-15b Biogenesis” (J Med Chem, 2020)
In brackets after ≈: the same amount, converted by molar mass. Activity calls are given as the source filed them. The rule behind the calls is not given here.

Experiments:
[1] = Binding affinity to 5'Dabcyl/3'-fluorescein-labelled pre-miRNA-15b (unknown origin) assessed as inhibition of dicer-mediated pre-miRNA processing […] by FRET assay
[2] = Stability in human serum assessed as parent compound remaining at 100 uM measured after 2 hrs by LC-MS/MS analysis; assay type: ADME, cell-free; settings: read-out: Stabilty
[3] = Binding affinity to 3'-fluorescein-labelled pre-miRNA-15b (unknown origin) measured after 30 mins by FRET assay
[4] = target: Cholinesterase (Homo sapiens) (UniProt P06276); test: Inhibition of human blood BChE at 1 to 25 uM using butyrylthiocholine iodide as substrate measured after 20 mins by fluorescence assay; assay type: tissue-based; settings: dose microM 1-25, time 20.0 min
[5] = Apparent permeability across apical to basolateral side in human Caco2 cells after 120 mins by LC-MS/MS analysis; assay type: ADME, cell-based; settings: Caco-2
[6] = Partition coefficient, log P of the compound in pH 7.4 1-octanol/PBS buffer at 38 mg measured after 1 hr by LC-MS/MS analysis; assay type: physicochemical
[7] = Half life in pH 6.5 simulated intestinal fluid at 100 uM by LC-MS/MS analysis; assay type: ADME
[8] = Binding affinity to miRNA-15b variant (unknown origin) transfected in human SH-SY5Y cells at 0.5 to 10 uM preincubated with cells for 4 hrs followed by transfection and measured after 4 days by renilla luciferase reporter gene assay; assay type: cell-based; settings: dose microM 0.5-10, time 4.0 hrs
[9] = Binding affinity to 5'Dabcyl/3'-fluorescein-labelled pre-miRNA212 (unknown origin) assessed as inhibition of recombinant human dicer-mediated pre-miRNA processing at 10 uM preincubated for 30 mins followed by dicer addition and measured after 5 hrs by FRET assay
[10] = system: HEL 299; test: Cytotoxicity against HEL 299 cells measured after 2 days by MTT assay; assay type: cell-based; settings: Homo sapiens, HEL 299, 48 h
[11] = target: T1, Acetylcholinesterase (Homo sapiens, UniProt P22303); test: Mixed type inhibition of recombinant human AChE at […] using varying levels of ATC as substrate by Lineweaver-burk plot analysis; settings: dose microM 0.5-10
[12] = Half life in pH 1.6 simulated gastric fluid at 100 uM by LC-MS/MS analysis; assay type: ADME
[13] = species: Homo sapiens; test: Inhibition of miRNA-15b biogenesis in human SH-SY5Y cells at 10 uM measured after 96 hrs by Trizol reagent based RT-qPCR analysis relative to control; assay type: cell-based
[14] = Apparent permeability across basolateral to apical side in human Caco2 cells after 120 mins by LC-MS/MS analysis; assay type: ADME, cell-based; settings: Caco-2
[15] = target: T1, Acetylcholinesterase; test: Inhibition of recombinant human AChE at 10 uM using ATC as substrate by DTNB-reagent based Ellman's method relative to control
[16] = Half life in Sprague-Dawley rat liver microsomes at 100 uM measured at 20 mins interval by LC-MS/MS analysis; assay type: ADME, Microsome
[17] = Permeability of the compound in PBS/EtOH solution measured after 16 hrs by PAMPA; assay type: ADME; settings: read-out: permeability
[18] = Binding affinity to 5'Dabcyl/3'-fluorescein-labelled pre-miRNA146a (unknown origin) assessed as inhibition of recombinant human dicer-mediated pre-miRNA processing at 10 uM preincubated for 30 mins followed by dicer addition and measured after 5 hrs by FRET assay
[19] = target: T1, Acetylcholinesterase; test: Inhibition of recombinant human AChE using ATC as substrate by DTNB-reagent based Ellman's method
[20] = Binding affinity to 5'Dabcyl/3'-fluorescein-labelled pre-miRNA124 (unknown origin) assessed as inhibition of recombinant human dicer-mediated pre-miRNA processing at 10 uM preincubated for 30 mins followed by dicer addition and measured after 5 hrs by FRET assay
[21] = system: SH-SY5Y; test: Protection against amyloid beta oligomer-induced cytotoxicity in human SH-SY5Y cells expressing miRNA-15b assessed as cell viability at 10 uM after 72 hrs by MTT assay relative to control; assay type: functional; settings: read-out: Activity
[22] = Solubility of the compound in pH 7.4 PBS buffer at 100 uM measured after 24 hrs by LC-MS/MS analysis; assay type: physicochemical
[23] = Binding affinity to 5'Dabcyl/3'-fluorescein-labelled pre-miRNA-15b (unknown origin) assessed as inhibition of recombinant human dicer-mediated pre-miRNA processing preincubated for 30 mins followed by dicer addition and measured after 5 hrs by FRET assay
[24] = Binding affinity to 5'Dabcyl/3'-fluorescein-labelled pre-miRNA-15b (unknown origin) assessed as inhibition of recombinant human dicer-mediated pre-miRNA processing at 10 uM preincubated for 30 mins followed by dicer addition and measured after 5 hrs by FRET assay

T1 sequence (P22303 whole entry): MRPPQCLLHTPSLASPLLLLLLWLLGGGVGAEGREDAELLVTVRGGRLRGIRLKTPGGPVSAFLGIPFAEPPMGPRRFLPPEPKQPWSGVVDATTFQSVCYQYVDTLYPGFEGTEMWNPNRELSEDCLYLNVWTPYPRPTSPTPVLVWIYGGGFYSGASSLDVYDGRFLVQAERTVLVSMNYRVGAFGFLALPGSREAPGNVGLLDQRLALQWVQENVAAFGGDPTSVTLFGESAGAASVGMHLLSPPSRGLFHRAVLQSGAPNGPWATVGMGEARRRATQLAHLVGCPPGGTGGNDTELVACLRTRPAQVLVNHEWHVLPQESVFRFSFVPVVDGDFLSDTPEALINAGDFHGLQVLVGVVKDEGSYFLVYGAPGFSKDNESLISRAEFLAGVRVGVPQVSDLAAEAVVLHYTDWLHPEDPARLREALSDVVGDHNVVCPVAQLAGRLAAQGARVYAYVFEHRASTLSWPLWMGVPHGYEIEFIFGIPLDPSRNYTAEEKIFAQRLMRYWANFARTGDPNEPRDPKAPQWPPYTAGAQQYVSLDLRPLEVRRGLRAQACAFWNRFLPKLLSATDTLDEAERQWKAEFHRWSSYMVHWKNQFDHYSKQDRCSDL
Chain of Cholinesterase (Homo sapiens) (P06276 whole entry): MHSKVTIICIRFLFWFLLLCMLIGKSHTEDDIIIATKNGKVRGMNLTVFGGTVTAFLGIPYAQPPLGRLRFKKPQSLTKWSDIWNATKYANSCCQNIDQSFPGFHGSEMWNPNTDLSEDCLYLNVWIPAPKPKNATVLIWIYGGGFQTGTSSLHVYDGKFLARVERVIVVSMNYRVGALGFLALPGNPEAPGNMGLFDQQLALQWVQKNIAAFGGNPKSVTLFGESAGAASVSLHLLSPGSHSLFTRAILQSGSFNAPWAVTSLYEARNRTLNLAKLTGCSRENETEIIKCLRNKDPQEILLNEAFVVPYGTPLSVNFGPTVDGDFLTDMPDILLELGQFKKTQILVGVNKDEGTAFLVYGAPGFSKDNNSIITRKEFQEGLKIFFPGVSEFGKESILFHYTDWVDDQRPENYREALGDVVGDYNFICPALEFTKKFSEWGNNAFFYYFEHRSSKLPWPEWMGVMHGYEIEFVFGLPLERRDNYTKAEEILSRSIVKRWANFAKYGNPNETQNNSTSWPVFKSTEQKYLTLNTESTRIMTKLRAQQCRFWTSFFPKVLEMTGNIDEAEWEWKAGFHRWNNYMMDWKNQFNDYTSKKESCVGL

Which results are given for `COCCn1cnc2cc(NC(=O)c3ccccc3)cc(C(=O)NCc3cc(F)cc(F)c3)c21`?
IC50 [1]: 530 nM; remaining at 2 h, 100 µM [2]: 99.1%; Kd [3]: 810 nM; inhibition [4]: Active; Papp A→B at 2 h [5]: 16.7 ×10⁻⁶ cm/s; logD at 1 h [6]: 2.34; half-life at 100 µM [7]: > 8.33 h; Activity [8]: inactive; inhibition [9]: inactive; IC50 [10]: > 50000 nM; inhibition [11]: Active; half-life at 100 µM [12]: 6.87 h; inhibition [13]: 55%; Papp B→A at 2 h [14]: 36.5 ×10⁻⁶ cm/s; inhibition [15]: > 90%; half-life at 100 µM [16]: > 5 h; Papp at 16 h [17]: 30.8 ×10⁻⁶ cm/s; inhibition [18]: inactive; IC50 [19]: 120 nM; inhibition [20]: inactive; viability at 10 µM [21]: 90%; solubility at 24 h, 100 µM [22]: 34 µM (≈ 15.8 µg/mL); IC50 [23]: 370 nM; inhibition [24]: Active

Which inhibition [4] does the source give for `CCN(C)C(=O)Oc1cccc([C@H](C)N(C)C)c1` here?
Its inhibition is “Active”.

Which viability at 10 µM [21] does the source give for `COc1cc2c(cc1OC)C(=O)C(CC1CCN(Cc3ccccc3)CC1)C2` (stereo unspecified) [DONEPEZIL] here?
The viability at 10 µM was 45%.
